From patent publication US6043248A, “Alpha-substituted pyrimidine-thioalkyl and alkylether compounds as inhibitors of viral reverse transcriptase” (priority 1997, dated 2000)

How the values were obtained:
[1] = target: T1, P236L viral reverse transcriptase (Human immunodeficiency virus type 1 group M subtype B, UniProt P04585, P823L); assay: inhibition of viral reverse transcriptase (P236L), cell free assay; format: biochemical; conditions: IC50 (Table I, P236L), 30 minutes at 37° C.
T1 construct: P236L viral reverse transcriptase is obtained by PNAS 90: 4713-4717 (1993); made in house
In short: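 E. coli-expressed wild-type or P236L RT extracts incubated with inhibitor 30 min at 37 °C in Tris pH 8.3 with MgCl₂, NaCl, DTT, NP-40, 10 μM [35S]-dNTP, poly rC/rG template and oligo dG/dT primer. Incorporated label counted on DE81 paper; reported as % inhibition and/or IC50.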

[2] = target: T2, viral reverse transcriptase (Wild Type) (Human immunodeficiency virus type 1 group M subtype B, UniProt P04585); assay: inhibition of viral reverse transcriptase (Wild Type), cell free assay; format: biochemical; conditions: for IC50: 30 minutes at 37° C., read-out: IC50 (Table II, Wild Type)
T2 construct: Viral reverse transcriptase (Wild Type) is found in extracts from bacterial clones; made in house; host or cells: Escherichia coli
From the text: The utility of the pyrimidine-thioalkyl and alkylether anti-AIDS compounds of Formula IA of this invention can be determined by their ability to inhibit viral reverse transcriptase, an enzyme essential for human immunodeficiency virus replication. This enzyme has characteristics which differentiate it from other known cellular polymerases and it is a unique enzyme which is not found in uninfected cells. Viral reverse transcriptase (Wild Type) is found in extracts from bacterial clones prepared according to the procedure described in AIDS Virus Reverse Transcriptase defined by high level expression in Escherichia coli, EMBO J. 6:3133-3137 (1987). P236L viral reverse transcriptase is obtained by PNAS 90: 4713-4717 (1993). Inhibition of this enzyme is determined in a cell free assay which measures the level of radioactive precursors incorporated into DNA. Extracts prepared according to the procedure of Science, 1125-1129 (1981) are incubated in a mixture of inhibitor, 20 mM dithiothreitol, 60 mM sodium chloride, 0.05% NP-40, 10 mM magnesium chloride, 50 mM Tris pH 8.3, 10 μM [^35 S]-labeled deoxynuleoside-5'-triphosphate, 10 μg/ml RNA template (poly rC or poly rG) and 5 μg/ml DNA primer (oligo dG or oligo dT) for 30 minutes at 37° C. Incorporation of radio-labeled percursor is determined by spotting aliquots of the reaction mixture on DE81 paper, washing the papers to remove unincorporated percursor, drying and determining counts. The results (IC50 means the concentration, in μM of drug, required to inhibit the reverse transcriptase activity (P236L and Wild Type) to the extent of 50%) of various assay(s) are combined and reported as % inhibition and/or IC50 (calculated) in Table I (P236L) and Table II (Wild Type).

SMILES	IC50 [1] [µM]	inhibition at 10 µM [2] [%]	inhibition at 50 µM [2] [%]	IC50 [2] [µM]	inhibition at 1 µM ([2]; @ 1 μM) [%]
CC(Sc1nc(N)cc(Cl)n1)c1cc(C2CCCCC2)ccn1 (stereo not shown) [Example 257]	0.5	78			
Nc1cc(Cl)nc(SC/C=C/C(=O)N2CCOCC2)n1 [Example 198, (E)-4-[4-[(4-amino-6-chloro-2-pyrimidinyl)thio]-1-oxo-2-butenyl]morpholine]	10		69		
CCC(CC)c1ccnc(C(C)Sc2nc(N)cc(Cl)n2)c1 (stereo not shown) [Example 261, 4-amino-6-chloro-2-(1-(4-(1-ethylpropyl)-2-pyridyl)-ethyl)thio-pyrimidine]	0.07			0.059	
CC(C)c1ccnc(C(C)Sc2nc(N)c(Br)c(Cl)n2)c1 (stereo not shown) [Example 225]	0.067			0.101	
CC(Sc1nc(N)cc(C(F)(F)F)n1)c1cc(C(C)(C)C)ccn1 (stereo not shown) [Example 269, 4-amino-6-trifluoromethyl-2-(1-(4-(1-dimethylethyl)-2-pyridyl)-ethyl)thio-pyrimidine]	0.2			0.441	
CC(Sc1nc(N)cc(Cl)n1)c1cc(N(C)C)ccn1 (stereo not shown) [Example 259]	0.03			0.087	
Cc1coc2cnc([C@H](C)Sc3nc(N)cc(Cl)n3)cc12 [Example 290, (S)-(-)-4-Amino-6-chloro-2-(1-(3-methylfuro[2,3c]pyridine-5-yl)ethyl)thio-pyrimidine]	0.014			0.025	
CC(C)c1cncc(C(C)Sc2nc(N)cc(Cl)n2)c1 (stereo not shown) [Example 260, 4-amino-6-chloro-2-(1-(5-(1-methylethyl)-3-pyridyl)-ethyl)thio-pyrimidine]	0.03			0.07	
Cc1cc2cc(C(C)Sc3nc(N)cc(Cl)n3)ncc2o1 (stereo not shown) [Example 242, 4-Amino-6-chloro-2-(1-(2-methylfuro[2,3c]pyridine-5-yl)ethyl)thio-pyrimidine]	0.118			0.282	
CC(Sc1nc(N)cc(Cl)n1)c1cc2c(cn1)OCC2(C)C (stereo not shown) [Example 248, 4-Amino-6-chloro-2-(1-(3,3-dimethyl-2,3-dihydrofuro[2,3c]pyridine-5-yl)ethyl)thio-pyrimidine]	0.018			0.072	
CC(Sc1nc(N)cc(Cl)n1)c1cc(C2CC2)ccn1 (stereo not shown) [Example 255]	0.1				96
COC(=O)C(Sc1nc(N)cc(Cl)n1)c1cc(C)ccn1 (stereo not shown) [Example 220, 4-Amino-6-chloro-2-(1-(4-methyl-2-pyridyl)-1-carbomethoxy-methyl)thio-pyrimidine]	50		19		
COC(=O)/C=C(\C)CSc1nc(N)cc(Cl)n1 [Example 208, (E)-4-[(4-Amino-6-chloro-2-pyrimidinyl)thio]-3-methyl-2-butenoic acid methyl ester]	1	79			
CC(C)c1ccnc(C(C)Sc2nc(N)cc(Cl)n2)c1 (stereo not shown) [Example 223, 4-Amino-6-chloro-2-(1-(4-(1-methylethyl)-2-pyridyl)ethyl)thio-pyrimidine]	0.068			0.06	
CCc1coc2cnc(C(C)Sc3nc(N)cc(Cl)n3)cc12 (stereo not shown) [Example 249, 4-Amino-6-chloro-2-(1-(3-ethylfuro[2,3c]pyridine-5-yl)ethyl)thio-pyrimidine]	0.01			0.023	
CC(Sc1nc(N)cc(Cl)n1)c1cc2c(cn1)CCCC2 (stereo not shown) [Example 233, 4-Amino-6-chloro-2-(1-(3-(5,6,7,8-tetrahydroisoquinolyl))ethyl)thiopyrimidine]	0.068			0.067	

SMILES	IC50 [1] [µM]	inhibition at 10 µM [2] [%]	inhibition at 50 µM [2] [%]	IC50 [2] [µM]	inhibition at 1 µM ([2]; @ 1 μM) [%]
Clc1nc(SCc2ccc3ccccc3c2)nc2c1CCN2 [Example 281, 4-chloro-2-(naphthylmethyl)thio-5,6-dihydro-7H-pyrrolo[2,3-d]pyrimidine]	1		56		
N#Cc1cc(N)nc(SCc2ccc3ccccc3c2)n1 [Example 277, 6-amino-2-(2-naphthylmethyl)thio-4-pyrimidine carbonitrile]	0.5	84			
Cc1coc2cnc([C@@H](C)Sc3nc(N)cc(C(F)(F)F)n3)cc12 [Example 298, (R)-(+)-4-Amino-6-trifluoromethyl-2-(1-(3-methylfuro[2,3c]pyridin-5-yl)ethylthio)-pyrimidine]	0.079			0.113	
CC(C)COc1ccc(C(C)Sc2nc(N)cc(Cl)n2)nc1Cl (stereo not shown) [Example 307, 4-amino-6-chloro-2-(((5-isobutoxy-6-chloro)-2-pyridyl)-ethyl)thio-pyrimidine]	1			5	
C[C@H](Sc1nc(N)cc(Cl)n1)c1cc2ccoc2cn1 [Example 299, (S)-(-)-4-Amino-6-chloro-2-(1-(furo[2,3c]pyridin-5-yl)ethylthio)-pyrimidine]	0.022			0.02	
CN(C(=O)/C=C/CSc1nc(N)cc(Cl)n1)c1ccccc1 [Example 200, (E)-N-methyl-N-phenyl-4-[(4-amino-6-chloro-2-pyrimidinyl)thio]-2-butenamide]	1	57			
Cc1coc2c(Cl)nc(C(C)Sc3nc(N)cc(C(F)(F)F)n3)cc12 (stereo not shown) [Example 295, 4-Amino-2-(1-(7-chloro-3-methyl-furo[2,3c]pyridin-5-yl)ethylthio)-6-trifluoromethyl-pyrimidine]	0.249			0.212	
Cc1coc2cnc([C@@H](C)Sc3nc(N)cc(Cl)n3)cc12 [Example 289, (R)-(+)-4-Amino-6-chloro-2-(1-(3-methylfuro[2,3c]pyridine-5-yl)ethyl)thio-pyrimidine]	0.014			0.029	
CCc1ccnc([C@@H](C)Sc2nc(N)cc(Cl)n2)c1 [Example 291, R-(+)-4-Amino-6-chloro-2-(1-(4-ethyl-2-pyridyl)ethyl)thio-pyrimidine]	0.08			0.187	
CC(Sc1nc(N)cc(Cl)n1)c1cc2ccoc2c(Cl)n1 (stereo not shown) [Example 237, 4-Amino-6-chloro-2-(1-(7-chlorofuro[2,3c]pyridine-5-yl)ethyl)thio-pyrimidine]	0.026			0.015	
CC(Sc1nc(N)cc(Cl)n1)c1ccccn1 (stereo not shown) [Example 211, 4-Amino-6-chloro-2-(1-(2-pyridyl)ethyl)thio-pyrimidine]	0.046			0.19	
CC(Sc1nc(N)cc(Cl)n1)c1cc2c(cn1)OCC2 (stereo not shown) [Example 247, 4-Amino-6-chloro-2-(1-(2,3-dihydrofuro[2,3c]pyridine-5-yl)ethyl)thio-pyrimidine]	0.061			0.072	
CC(Sc1nc(N)cc(C(F)(F)F)n1)c1cc2c(cn1)CCCC2 (stereo not shown) [Example 234, 4-Amino-6-trifluoromethyl-2-(1-(3-(5,6,7,8-tetrahydro-isoquinolyl))ethyl)thio-pyrimidine]	0.17			0.131	
CC(Sc1nc(N)cc(Cl)n1)c1cc2c(C(F)(F)F)coc2c(Cl)n1 (stereo not shown) [Example 293]	0.19			0.345	
CC(Sc1nc(N)cc(Cl)n1)c1cc(C#N)ccn1 (stereo not shown) [Example 214, 4-Amino-6-chloro-2-(1-(4-cyano-2-pyridyl)ethyl)thio-pyrimidine]	0.178			0.487	
Cc1cc2cc(C(C)Sc3nc(N)cc(C(F)(F)F)n3)nc(Cl)c2o1 (stereo not shown) [Example 241, 4-Amino-6-trifluoromethyl-2-(1-(7-chloro-2-methylfuro[2,3c]pyridine-5-yl)ethyl)thio-pyrimidine]	0.334			0.082	
